{"source": "patent US10695330B2", "about": "“Methods of treatment” (Global Blood Therapeutics, Inc., priority 2015, dated 2020)", "key": {"[1]": {"target": "T1, Hb (Mus musculus, UniProt P01942)", "T1 construct": "from tissue; host or cells: whole blood (red blood cells) of dosed C57BL / C57BL/6J mice", "T1 sequence (P01942 2-142 limits assumed)": "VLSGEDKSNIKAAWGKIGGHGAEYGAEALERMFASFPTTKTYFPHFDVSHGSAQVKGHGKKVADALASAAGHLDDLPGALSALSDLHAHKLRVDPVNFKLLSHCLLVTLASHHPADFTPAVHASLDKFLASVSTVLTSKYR", "T1 sequence (P02088 2-147 partner limits assumed)": "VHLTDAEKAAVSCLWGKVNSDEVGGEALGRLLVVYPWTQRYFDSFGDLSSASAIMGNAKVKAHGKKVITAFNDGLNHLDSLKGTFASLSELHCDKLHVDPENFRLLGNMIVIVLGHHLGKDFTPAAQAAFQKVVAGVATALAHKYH", "assay": "Tolerance to hypoxia mouse model: PK/PD (Hb occupancy, hemoximetry of blood from dosed mice)", "format": "in vivo", "settings": "healthy mice", "description": "(§1) Male, C57BL mice were fitted with a dorsal skinfold window chamber for direct visualization of an intact microvascular bed (Yalcin & Cabrales 2012). After the window chamber was implanted, the animals were left to recover for at least 2 days, before undergoing surgery a second time for arterial (carotid) catheter implantation (PESO tubing). After two day of recovery, mice were dosed orally with Compound 1 (70 or 140 mg/kg) or vehicle only and Hb O2 affinity was determined by hemoximetry. Two hours post dose, conscious mice were placed in a restraining tube with a longitudinal slit from which the protruding window chamber provided a microscopic stage for observation. In this setup, gas flow rate (0.2 L/min) into the tube is diffused by a cotton filter barrier. Baseline measurements for normoxia (21% O2) were completed within an hour of restraining mice. The animals were then exposed to stepwise hypoxia by decreasing the O2 concentration to 15, 10 and 5%. Animals were kept at each hypoxic level for 30 min. Mice were allowed 15 min of acclimatization at each new hypoxic level before measurements were taken. During hypoxia, changes in systemic and microvascular hemodynamics, blood gases, blood lactate, tissue partial pressure of O2 (PO2), tissue hypoxia and tolerance to hypoxia were evaluated. At each time point, mice with adequate systolic blood pressure (BP) were counted as survived and mice with severe hypotension (BP≤60 mmHg) were counted as non-survived and were euthanized.\nOxygen equilibrium curves for mice blood were obtained by deoxygenation of O2-equilibrated samples in a Hemox buffer at 37° C., using a Hemox Analyzer (TCS Scientific Corporation, New Hope, Pa.). […] The absorbance at wavelengths that correspond to the isosbestic point (570 nm) and deoxy Hb (560 nm) was recorded as a function of the sample O2 tension (pO2). During deoxygenation, the pO2 and percent O2 saturation values were collected to obtain the OECs and the p50 values (partial pressure of O2 at which Hb is 50% saturated with O2). p50 values were calculated using a non-linear regression analysis. […]"}, "[2]": {"system": "healthy mice subjected to extreme hypoxia", "assay": "Tolerance to hypoxia mouse model: systemic parameters, tissue hypoxia, survival", "format": "in vivo", "settings": "for survival: after 1.5 hours of exposure to 5% O2 hypoxia", "description": "as §1\nMAP (mean arterial pressure) and heart rate (HR) were recorded continuously from Carotid catheter. Hct was measured from centrifuged arterial blood samples taken in heparinized capillary tubes. Arterial blood was collected in heparinized glass capillaries (50 μL) and immediately analyzed for PO2, PCO2, base excess, and pH. Arterial Hb saturations were measured using a CO-Oximeter.\nHigh resolution non-invasive microvascular PO2 measurements were made using phosphorescence quenching microscopy (PQM). Tissue PO2 was measured in regions in between functional capillaries (Yalcin & Cabrales 2012). Hb O2 saturations in the microcirculation are calculated using the O2 equilibrium curves measured.\nTissue hypoxia was studied via immunohistochemistry staining for pimonidazole bound to hypoxic zones in vital tissues. Mice received a bolus intraperitoneal injection (IP) injection of the hypoxic marker Hypoxyprobe-1 (pimonidazole 40 mg/kg) and 5 mg/kg Hoechst 33342 diluted in PBS (total volume, 100 μL). At the end of the study, mice were euthanized and tissues extracted for histology. Sections are stained with monoclonal antibody against pimonidazole. Images for pimonidazole antibody-stained areas and Hoechst were recorded. Results are reported as the ratio of pimonidazole stained area to the total cellular area by co-localization of pimonidazole and Hoechst."}}, "data": [{"molecule": "O=Cc1c(O)cccc1OC[C@@H]1CCCCN1C(=O)c1cccnc1", "note": "[Compound 1, (S)-2-hydroxy-6-((1-nicotinoylpiperidin-2-yl)methoxy)benzaldehyde]", "values": [{"measurement": "calculated Hb occupancy", "setting": "[1]; 70 mg/kg oral", "value": "~30", "unit": "%"}, {"measurement": "calculated Hb occupancy", "setting": "[1]; 140 mg/kg oral", "value": "~60", "unit": "%"}, {"measurement": "Hb O2 affinity (left-shift in the OEC) in whole blood from dosed mice", "setting": "[1]; 70 or 140 mg/kg oral, vs vehicle", "value": "dose-dependent increase in Hb O2 affinity relative to control"}, {"measurement": "survival", "setting": "[2]; 70 mg/kg", "value": 16, "unit": "%"}, {"measurement": "survival", "setting": "[2]; 140 mg/kg", "value": 83, "unit": "%"}, {"measurement": "arterial blood pH", "setting": "[2]; during 10% and 5% O2 hypoxia", "value": "normal during hypoxia"}, {"measurement": "arterial blood oxygen saturation (SaO2)", "setting": "[2]; during hypoxia, 70 or 140 mg/kg oral, vs control", "value": "dose-dependently increased SaO2 relative to control"}, {"measurement": "heart rate (HR)", "setting": "[2]; during hypoxia, vs control", "value": "sustained higher"}, {"measurement": "mean arterial pressure (MAP)", "setting": "[2]; during hypoxia, vs control", "value": "sustained higher mean BP"}, {"measurement": "blood lactate levels", "setting": "[2]; extreme hypoxia (5% O2), vs control", "value": "reduced lactate levels relative to control"}, {"measurement": "hypoxic tissues positively stained by pimonidazole", "setting": "[2]; extreme hypoxia, vs control", "value": "reduced hypoxic tissues positively stained by pimonidazole relative to control"}, {"measurement": "arterial blood partial pressure of O2 (PaO2)", "setting": "[2]; stepwise hypoxia, 70 or 140 mg/kg oral", "value": "the PaO2 was the same in Compound 1-treated and control mice"}]}]}
